Measurements published in patent US11622964B2, “Method for destroying cellular mechanical homeostasis and promoting regeneration and repair of tissues and organs, and use thereof” (INSTITUTE OF ZOOLOGY, CHINESE ACADEMY OF SCIENCES, priority 2018, dated 2023).

Assays:
liver tissue = assay: Liver tissue rigidity (Young's modulus, Mark-10 ESM303) and second harmonic scanning in CCl4 chronic severe liver damage; format: in vivo, mice
From the text: The ICR, C57Bl/6 mice used in the experiment are purchased from SPF (Beijing) Biotechnology Co., Ltd.; elbow tweezers, finger tweezers, scissors, needle holders, suture needles, suture threads are purchased from Asone Trading Co., Ltd.; antibiotics are purchased from Gibco (15240-062). A chronic severe liver damage model induced by CCl4 (the same as Example 4) is constructed, and the mice are sacrificed by cervical dislocation after modeling. […] It can be seen from the above results that, the myosin inhibitor reduces the tissue rigidity during liver damage process.

[1] = test system: CCl4-induced mild hepatic fibrosis; assay: CCl4-induced mild hepatic fibrosis model; format: in vivo, mice; details: 1 mg or 3 mg per kg per day, intraperitoneal or tail vein injection, 1-2 weeks
Description: The ICR, C57Bl/6 mice used in the experiment are purchased from SPF (Beijing) Biotechnology Co., Ltd., carbon tetrachloride is purchased from Aladdin Reagent (Shanghai) Co., Ltd. (C131583-1L), and corn oil is purchased from Sigma (C8267). 8-week-old female mice are selected and housed in the barrier for one week, they are randomly divided into two groups, and respectively injected with CCl4/corn oil (a volume ratio of 2:5) and corn oil. The dose of CCl4 is 0.5 ml/kg, twice a week for 4 weeks. After 4 weeks, the mice are anesthetized with 5% chloral hydrate, and part of the hepatic lobe is taken out, fixing with 4% paraformaldehyde, dehydrating and immersing in wax, then staining with Sirius Red (YY-R20384-100ML) kit for fibrosis, wherein the collagenous fibers are red, as shown in FIG. 2B. After successful identification of the modeling, the drug administration is performed by intraperitoneal injection or tail vein injection. The small molecule is dissolved in dimethyl sulfoxide at a concentration of 1 mg or 3 mg per kg per day; successfully adding 2-5% DMSO+30% propylene glycol+2% Tween 80+ddH2O, and the control group (“Control”) is abbreviated as “Con” in the figure. […]

CCl4 liver damage = assay: Blood biochemistry, hepatocyte proliferation, apoptosis and liver function genes after CCl4 liver damage; format: in vivo, mice
Description: Blood biochemical analysis (fasting 12-16 hours before sampling) further confirms that myosin inhibitor (−)-blebbistatin may reduce the content of liver damage indicators such as ALT, AST and GGT, as shown in FIG. 4A. Further, Alb-crexmTmG hybrid mice are used for fibrosis modeling with CCl4, wherein GFP is expressed in mature hepatocytes of the mice. […] In summary, the myosin inhibitor (−)-blebbistatin promotes liver regeneration by inhibiting fibrosis of liver damage, promoting hepatocyte proliferation, and reducing apoptosis, thereby maintaining liver function.

[2] = test system: mouse adult liver, lung, and heart-derived primary mesenchymal cells (priMCs); assay: TGF-β1-induced transformation of mouse primary mesenchymal cells into myofibroblasts; format: cell-based; details: 20 μM, 3 ng/ml TGF-β1, 7 days
From the text: (§1) In this example, cell models for in vitro fibrosis are respectively built to activate mouse hepatic stellate Cells (mHSCs, FIG. 13(B)), mouse embryonic fibroblasts (MEFs FIG. 13(C)), mouse adult liver, lung, and heart-derived primary mesenchymal cells (priMCs, FIG. 13(D)), and human hepatic stellate cells (hLX-2, FIG. 13(E)) into myofibroblasts through the induction of TGF-β1. The specific experimental procedure is as shown in FIG. 9A: a medium containing 10% serum is used for the initial cell culture; after 24 hours the medium is replaced with low serum medium (or pre-starvation treatment for 16 hours) while adding 3 ng/ml TGF-β1 with DMSO or Bleb (20 μM); after 7 days the expression of myofibroblast activation marker protein (Acta2), collagen (Col1a1, Col1a2, Col3a1, and Col1a2), and matrix metalloproteinases and inhibitors (collagenases: MmP8, and MmP13; gelatinases: MmP2, and MmP9; a metalloproteinase inhibitor: Timp1/2/3) are identified.

[3] = test system: human hepatic stellate cells (hLX-2); assay: TGF-β1-induced transformation of human hepatic stellate cells into myofibroblasts; format: cell-based; details: 20 μM, 3 ng/ml TGF-β1, 7 days
From the text: as §1

[4] = test system: homologous recombination repair; assay: Homologous recombination repair reporter plasmid system (flow cytometry, GFP/mRuby); format: cell-based; details: treated for 4 h at 18 h, 24 h, 36 h after medium change; flow analysis 72 h after transfection
Description: First, a reporter plasmid system for homologous recombination repair is constructed, and the cells emit green fluorescence only when the foreign homologous sequence and the homologous fragment of the cell are homologously recombined. Meanwhile, mRuby red fluorescent protein is transferred to label the efficiency of transfected cells, and the efficiency of homologous recombination is determined by flow cytometry analysis of the ratio of green fluorescent protein to mRuby. 18 h after changing the medium for the transfection, the control group is treated with DMSO for 4 h; and 18 h, 24 h, and 36 h after changing the medium for the transfection, the experimental group is treated with (−)-blebbistatin for 4 h, and the HDR efficiency is analyzed by flow analysis 72 h after transfection. […] The experimental procedure is as follows: after changing the medium for the transfection, the control group is treated with DMSO; and after changing the medium for the transfection, the experimental group is treated with 250 nM RTA408; then the HDR efficiency is analyzed by flow analysis 72 h after transfection.

Question: `Cc1ccc2c(c1)C(=O)[C@]1(O)CCN(c3ccccc3)C1=N2` [(−)-blebbistatin] was tested. Which “rigidity of liver tissue (Young's modulus)” value (liver tissue; day 7 of the treatment) did it give?
Answer: The value was “significantly reduces”.

Question: And the “massive parallel array of fibers in the liver tissue (second harmonic intravital scanning)” value (liver tissue; mouse, in vivo)?
Answer: The value was “reduced”.

Question: What about the “fibrosis (Sirius red staining)” value [1] of the same compound?
Answer: Its value is “significantly inhibits”.

Question: What about the “Alb expression in GFP-expressing hepatocytes” value (CCl4 liver damage; Alb-cre x mTmG hybrid mice, CCl4 fibrosis modeling) of the same compound?
Answer: The value was “most of the cells expressing GFP express Alb”.

Question: And the “expression of hepatocyte-related, bile duct-related and proliferation-related genes (transcriptional level)” value (CCl4 liver damage; compared with the control group)?
Answer: Its value is “significantly maintains high level expression”.

Question: And the “content of liver damage indicators such as ALT, AST and GGT (blood biochemical analysis)” value (CCl4 liver damage; fasting 12-16 hours before sampling)?
Answer: The value was “reduce”.

Question: What about the “apoptosis during liver damage (TUNEL staining)” value (CCl4 liver damage; mouse, in vivo) of the same compound?
Answer: The value was “reduces”.

Question: What about the “cell proliferation after liver damage (ALB/Ki-67 staining)” value (CCl4 liver damage; mouse, in vivo) of the same compound?
Answer: The value was “significantly promotes”.

Question: And the “TGF-β1 induced transformation into myofibroblasts and extracellular matrix synthesis” value [2]?
Answer: Its value is “significantly inhibits”.

Question: And the “TGF-β1 induced transformation into myofibroblasts and extracellular matrix synthesis” value [3]?
Answer: Its value is “significantly inhibits”.

Question: And the inhibitors of metalloproteinases [3]?
Answer: The inhibitors of metalloproteinases was “down-regulation”.

Question: What about the “metalloproteinases for degrading extracellular matrix” value [3] of the same compound?
Answer: Its value is “promoting the up-regulation”.

Question: And the “efficiency of homologous recombination (HDR efficiency)” value [4]?
Answer: The value was “significantly increases”.
